14 compounds from patent US9884849B2, “Fluorinated benzofuranyl-pyrimidine derivatives containing a sulfoximine group” (Bayer Pharma Aktiengesellschaft, priority 2014, dated 2018) can be followed below.

Read-outs that look alike come from different tables or passages of the source.

In one assay the test system is HeLa-MaTu-ADR cells. The experiment in a line: Proliferation assay HeLa-MaTu-ADR (Method 3). Format: cell-based, human. To be noted: 4 days, crystal violet, read-out: Inhibition of HeLa-MaTu-ADR cell proliferation IC50. How it is done: (§1) Cultivated tumour cells (HeLa, human cervical tumour cells, ATCC CCL-2; NCI-H460, human non-small cell lung carcinoma cells, ATCC HTB-177; A2780, human ovarian carcinoma cells, ECACC #93112519; DU 145, hormone-independent human prostate carcinoma cells, ATCC HTB-81; HeLa-MaTu-ADR, multidrug-resistant human cervical carcinoma cells, EPO-GmbH Berlin; Caco-2, human colorectal carcinoma cells, ATCC HTB-37; B16F10, mouse melanoma cells, ATCC CRL-6475) were plated at a density of 5,000 cells/well (DU145, HeLa-MaTu-ADR), 3,000 cells/well (NCI-H460, HeLa), 2,500 cells/well (A2780), 1,500 cells/well (Caco-2), or 1,000 cells/well (B16F10) in a 96-well multititer plate in 200 μL of their respective growth medium supplemented 10% fetal calf serum. After 24 hours, the cells of one plate (zero-point plate) were stained with crystal violet (see below), while the medium of the other plates was replaced by fresh culture medium (200 μl), to which the test substances were added in various concentrations (0 μM, as well as in the range of 0.001-10 μM; the final concentration of the solvent dimethyl sulfoxide was 0.5%). The cells were incubated for 4 days in the presence of test substances. Cell proliferation was determined by staining the cells with crystal violet: the cells were fixed by adding 20 μl/measuring point of an 11% glutaric aldehyde solution for 15 minutes at room temperature. After three washing cycles of the fixed cells with water, the plates were dried at room temperature. The cells were stained by adding 100 μl/measuring point of a 0.1% crystal violet solution (pH 3.0). After three washing cycles of the stained cells with water, the plates were dried at room temperature. The dye was dissolved by adding 100 μl/measuring point of a 10% acetic acid solution. The extinction was determined by photometry at a wavelength of 595 nm. The change of cell number, in percent, was calculated by normalization of the measured values to the extinction values of the zero-point plate (=0%) and the extinction of the untreated (0 μm) cells (=100%). The IC50 values (inhibitory concentration at 50% of maximal effect) were determined by means of a 4 parameter fit.

Another assay deals with T1, CDK2/CycE (Homo sapiens, UniProt P24941).
T1 construct: GST; purchased ProQinase GmbH (Freiburg, Germany); host or cells: insect cells (Sf9)
The experiment in a line: CDK2/CycE high ATP kinase assay (Method 2b, TR-FRET). The conditions noted are these: 2 mM ATP. The format is biochemical. The method, then: 2b. CDK2/CycE High ATP Kinase Assay:
CDK2/CycE-Inhibitory Activity of Compounds of the Present Invention at 2 mM Adenosine-Tri-Phosphate (ATP) was Quantified Employing the CDK2/CycE TR-FRET (TR-FRET=Time Resolved Fluorescence Energy Transfer) Assay as Described in the Following Paragraphs.
Recombinant fusion proteins of GST and human CDK2 and of GST and human CycE, expressed in insect cells (Sf9) and purified by Glutathion-Sepharose affinity chromatography, were purchase from ProQinase GmbH (Freiburg, Germany). As substrate for the kinase reaction biotinylated peptide biotin-Ttds-YISPLKSPYKISEG (C-terminus in amid form) was used which can be purchased e.g. form the company JERINI peptide technologies (Berlin, Germany).
For the assay 50 nl of a 100 fold concentrated solution of the test compound in DMSO was pipetted into a black low volume 384 well microtiter plate (Greiner Bio-One, Frickenhausen, Germany), 2 yl of a solution of CDK2/CycE in aqueous assay buffer [50 mM Tris/HCl pH 8.0, 10 mM MgCl2, 1.0 mM dithiothreitol, 0.1 mM sodium ortho-vanadate, 0.01% (v/v) Nonidet-P40 (Sigma)] were added and the mixture was incubated for 15 min at 22° C. to allow pre-binding of the test compounds to the enzyme before the start of the kinase reaction. […] The concentration of CDK2/CycE was adjusted depending of the activity of the enzyme lot and was chosen appropriate to have the assay in the linear range, typical concentrations were in the range of 15 ng/ml. The reaction was stopped by the addition of 5 yl of a solution of TR-FRET detection reagents (0.2 μM streptavidine-XL665 [Cisbio Bioassays, Codolet, France] and 1 nM anti-RB(pSer807/pSer811)-antibody from BD Pharmingen [#558389] and 1.2 nM LANCE EU-W1024 labeled anti-mouse IgG antibody [Perkin-Elmer, product no. AD0077, as an alternative a Terbium-cryptate-labeled anti-mouse IgG antibody from Cisbio Bioassays can be used]) in an aqueous EDTA-solution (100 mM EDTA, 0.2% (w/v) bovine serum albumin in 100 mM HEPES/NaOH pH 7.0).
The resulting mixture was incubated 1 h at 22° C. to allow the formation of complex between the phosphorylated biotinylated peptide and the detection reagents. Subsequently the amount of phosphorylated substrate was evaluated by measurement of the resonance energy transfer from the Eu-chelate to the streptavidine-XL. Therefore, the fluorescence emissions at 620 nm and 665 nm after excitation at 350 nm were measured in a TR-FRET reader, e.g. a Rubystar (BMG Labtechnologies, Offenburg, Germany) or a Viewlux (Perkin-Elmer). The ratio of the emissions at 665 nm and at […] was taken as the measure for the amount of phosphorylated substrate. The data were normalised (enzyme reaction without inhibitor=0% inhibition, all other assay components but no enzyme=100% inhibition).

For the next assay, the system named is DU145 cells. Nature of the assay: Proliferation assay DU145 (Method 3). The conditions noted are these: DU145, 4 days, crystal violet, read-out: Inhibition of DU145 cell proliferation IC50. The format is cell-based, human. How it is done: as §1

For the compound `CS(=O)(Cc1cccc(Nc2ncc(F)c(-c3ccc(F)c4ccoc34)n2)c1)=NC#N` (racemic) [Example 1, (rac)-[(3-{[5-Fluoro-4-(4-fluoro-1-benzofuran-7-yl)pyrimidin-2-yl]amino}benzyl)(methyl)oxido-λ^6-sulfanylidene]cyanamide], the IC50 was 134 nM in the assay with HeLa-MaTu-ADR cells (Homo sapiens, 96 h); 560 nM at CDK2/CycE; 112 nM with DU145 cells (Homo sapiens, DU-145, 96 h).

For `CS(=N)(=O)Cc1cccc(Nc2ncc(F)c(-c3ccc(F)c4ccoc34)n2)c1` (racemic) [Example 4, (rac)-5-Fluoro-4-(4-fluoro-1-benzofuran-7-yl)-N-{3-[(S-methylsulfonimidoyl)-methyl]phenyl}-pyrimidin-2-amine], the IC50 with HeLa-MaTu-ADR cells (Homo sapiens, 96 h) is 143 nM; on CDK2/CycE, 510 nM; in the assay on DU145 cells (Homo sapiens, DU-145, 96 h), 169 nM.

As for `CS(=O)(Cc1cc(F)cc(Nc2ncc(F)c(-c3ccc(F)c4ccoc34)n2)c1)=NC#N` (racemic) [Example 7, (rac)-[(3-Fluoro-5-{[5-fluoro-4-(4-fluoro-1-benzofuran-7-yl)pyrimidin-2-yl]amino}benzyl)(methyl)-oxido-λ^6-sulfanylidene]cyanamide], the IC50 turned out to be 60 nM in the assay with HeLa-MaTu-ADR cells (Homo sapiens, 96 h); 652 nM against CDK2/CycE; 51 nM in the assay on DU145 cells (Homo sapiens, DU-145, 96 h).

With `CS(=N)(=O)Cc1cc(F)cc(Nc2ncc(F)c(-c3ccc(F)c4ccoc34)n2)c1` (racemic) [Example 10, (rac)-5-Fluoro-4-(4-fluoro-1-benzofuran-7-yl)-N-{3-fluoro-5-[(S-methylsulfonimidoyl)-methyl]-phenyl}-pyrimidin-2-amine], the IC50 is 1800 nM on CDK2/CycE and 72 nM with DU145 cells (Homo sapiens, DU-145, 96 h).

On to `Cc1cc(CS(C)(=O)=NC#N)cc(Nc2ncc(F)c(-c3ccc(F)c4ccoc34)n2)c1` (racemic) [Example 13, (rac)-[(3-{[5-Fluoro-4-(4-fluoro-1-benzofuran-7-yl)pyrimidin-2-yl]amino}-5-methylbenzyl)-(methyl)oxido-λ^6-sulfanylidene]cyanamide], for which the IC50 with HeLa-MaTu-ADR cells (Homo sapiens, 96 h) was determined as 37 nM; against CDK2/CycE, 1200 nM; in the assay with DU145 cells (Homo sapiens, DU-145, 96 h), 86 nM.

For the compound `Cc1cc(CS(C)(=N)=O)cc(Nc2ncc(F)c(-c3ccc(F)c4ccoc34)n2)c1` (racemic) [Example 16, (rac)-5-Fluoro-4-(4-fluoro-1-benzofuran-7-yl)-N-{3-methyl-5-[(S-methylsulfonimidoyl)-methyl]phenyl}pyrimidin-2-amine], the IC50 in the assay on HeLa-MaTu-ADR cells (Homo sapiens, 96 h) came to 41 nM; at CDK2/CycE, 491 nM; with DU145 cells (Homo sapiens, DU-145, 96 h) it was 106 nM.

For `CS(=O)(Cc1cc(Nc2ncc(F)c(-c3ccc(F)c4ccoc34)n2)cc(S(F)(F)(F)(F)F)c1)=NC#N` (racemic) [Example 17, (rac)-{[3-{[5-fluoro-4-(4-fluoro-1-benzofuran-7-yl)pyrimidin-2-yl]amino}-5-(pentafluoro-λ^6-sulfanyl)benzyl](methyl)oxido-λ^6-sulfanylidene}cyanamide], the IC50 in the assay with HeLa-MaTu-ADR cells (Homo sapiens, 96 h) worked out at 98 nM; against CDK2/CycE, 1460 nM; with DU145 cells (Homo sapiens, DU-145, 96 h) it was 94 nM.

`CS(=N)(=O)Cc1cc(Nc2ncc(F)c(-c3ccc(F)c4ccoc34)n2)cc(S(F)(F)(F)(F)F)c1` (racemic) [Example 18, (rac)-5-Fluoro-4-(4-fluoro-1-benzofuran-7-yl)-N-{3-[(S-methylsulfonimidoyl)methyl]-5-(pentafluoro-λ^6-sulfanyl)phenyl}pyrimidin-2-amine]: the IC50 in the assay with HeLa-MaTu-ADR cells (Homo sapiens, 96 h) was determined as 116 nM; against CDK2/CycE, 1540 nM; in the assay with DU145 cells (Homo sapiens, DU-145, 96 h), 141 nM.

Take `CS(=O)(Cc1cccc(Nc2ncc(F)c(-c3ccc(F)c4ccoc34)n2)c1)=NC#N` (single isomer, unassigned) [Example 2, [(3-{[5-Fluoro-4-(4-fluoro-1-benzofuran-7-yl)pyrimidin-2-yl]amino}benzyl)(methyl)oxido-λ^6-sulfanylidene]cyanamide]: the IC50 with HeLa-MaTu-ADR cells came out at 87 nM; at CDK2/CycE, 353 nM; with DU145 cells, 54 nM.

Take `CS(=O)(Cc1cccc(Nc2ncc(F)c(-c3ccc(F)c4ccoc34)n2)c1)=NC#N` (single isomer, unassigned) [Example 3, [(3-{[5-Fluoro-4-(4-fluoro-1-benzofuran-7-yl)pyrimidin-2-yl]amino}benzyl)(methyl)oxido-λ^6-sulfanylidene]cyanamide]: the IC50 in the assay on HeLa-MaTu-ADR cells (Homo sapiens, 96 h) is 118 nM; on CDK2/CycE it was 475 nM; in the assay with DU145 cells (Homo sapiens, DU-145, 96 h), 105 nM.

On to `CS(=N)(=O)Cc1cccc(Nc2ncc(F)c(-c3ccc(F)c4ccoc34)n2)c1` (single isomer, unassigned) [Example 5, 5-Fluoro-4-(4-fluoro-1-benzofuran-7-yl)-N-{3-[(S-methylsulfonimidoyl)-methyl]-phenyl}-pyrimidin-2-amine], for which the IC50 was 190 nM in the assay on HeLa-MaTu-ADR cells (Homo sapiens, 96 h); 802 nM at CDK2/CycE; 186 nM in the assay with DU145 cells (Homo sapiens, DU-145, 96 h).

For `CS(=N)(=O)Cc1cccc(Nc2ncc(F)c(-c3ccc(F)c4ccoc34)n2)c1` (single isomer, unassigned) [Example 6, 5-Fluoro-4-(4-fluoro-1-benzofuran-7-yl)-N-{3-[(S-methylsulfonimidoyl)-methyl]-phenyl}-pyrimidin-2-amine], the IC50 with HeLa-MaTu-ADR cells was 96 nM; against CDK2/CycE, 1000 nM; with DU145 cells it was 110 nM.

Turning to `CS(=O)(Cc1cc(F)cc(Nc2ncc(F)c(-c3ccc(F)c4ccoc34)n2)c1)=NC#N` (single isomer, unassigned) [Example 8, [(3-Fluoro-5-{[5-fluoro-4-(4-fluoro-1-benzofuran-7-yl)pyrimidin-2-yl]amino}benzyl)(methyl)-oxido-λ^6-sulfanylidene]cyanamide], the IC50 in the assay with HeLa-MaTu-ADR cells (Homo sapiens, 96 h) amounted to 35 nM; against CDK2/CycE, 812 nM; with DU145 cells (Homo sapiens, DU-145, 96 h) it was 34 nM.

In the case of `CS(=O)(Cc1cc(F)cc(Nc2ncc(F)c(-c3ccc(F)c4ccoc34)n2)c1)=NC#N` (single isomer, unassigned) [Example 9, [(3-Fluoro-5-{[5-fluoro-4-(4-fluoro-1-benzofuran-7-yl)pyrimidin-2-yl]amino}benzyl)(methyl)-oxido-λ^6-sulfanylidene]cyanamide], the IC50 was 42 nM in the assay with HeLa-MaTu-ADR cells, 2230 nM against CDK2/CycE and 34 nM in the assay on DU145 cells.
